Columns and labels:
SphK2 = target: T1, SphK2 (Homo sapiens, UniProt Q9NRA0); assay: SphK2 activity assay (sphingosine substrate, with kinetic study); format: biochemical; conditions: relative activity vs no inhibitor; compounds at 10 μM (FIGS. 1, 3, 5)
T1 sequence (Q9NRA0 1-654): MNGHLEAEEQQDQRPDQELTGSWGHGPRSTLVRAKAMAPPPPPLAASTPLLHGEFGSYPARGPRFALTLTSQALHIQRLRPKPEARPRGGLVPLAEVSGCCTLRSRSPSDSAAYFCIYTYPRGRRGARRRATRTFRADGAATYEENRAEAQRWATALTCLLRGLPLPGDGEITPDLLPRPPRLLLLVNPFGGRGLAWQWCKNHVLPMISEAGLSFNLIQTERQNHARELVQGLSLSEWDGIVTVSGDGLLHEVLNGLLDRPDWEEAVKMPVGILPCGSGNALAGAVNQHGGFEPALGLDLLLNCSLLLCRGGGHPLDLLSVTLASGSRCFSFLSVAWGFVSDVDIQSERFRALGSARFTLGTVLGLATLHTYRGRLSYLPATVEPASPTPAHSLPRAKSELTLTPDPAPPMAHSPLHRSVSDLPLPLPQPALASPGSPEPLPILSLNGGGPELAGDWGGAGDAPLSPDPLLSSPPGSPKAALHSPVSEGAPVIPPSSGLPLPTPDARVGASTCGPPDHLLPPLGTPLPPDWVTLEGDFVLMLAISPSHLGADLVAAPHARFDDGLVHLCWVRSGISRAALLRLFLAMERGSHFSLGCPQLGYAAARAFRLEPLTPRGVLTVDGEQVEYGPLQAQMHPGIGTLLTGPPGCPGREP

SphK1 = SphK1 (Homo sapiens, UniProt Q9NYA1); assay: SphK1 activity assay; format: biochemical; conditions: relative activity vs no inhibitor; compounds at 10 μM (FIGS. 1, 4, 6)
Procedure: A) SphK1 and SphK2 activities were measured with 5 μM sphingosine in the absence or presence of the indicated concentrations of K145 or 10 μM DMS. Data are expressed as percentage SphK activity in the absence of inhibitor; B) Effect of K145 (10 μM) on activity of the indicated enzymes was tested by SelectScreen Kinase Profiling from Invitrogen. CaMK11β, Ca2+/calmodulin-dependent protein kinase II; CDK2, cyclin-dependent kinase 2; EGFR, Epidermal Growth Factor Receptor; Fyn, Fyn Kinase (p55); ERK2, extracellular signal-regulated kinase 2; ERK1, extracellular signal-regulated kinase 1; PKA, protein kinase A; PKCα, protein kinase C α; P13K, phosphatidylinositide 3-kinase. Data are expressed as percentage of control activity averaged from 2 independent experiments.
FIG. 3. SphK2 was incubated with indicated compounds at 10 μM, then the activity of SphK2 was determined. The data shown here is a relative activity of SphK2 compared to control (no inhibitor, column labeled Sph in the Figure). 96047 is a known SpK2 inhibitor. A5, B26, K25 and QLA13 are known compounds [Li et al. (2009) Bioorg Med Chem Lett 19: 6042-6046; Liu et al. (2012) Eur J Med Chem 47: 125-137] and were tested for purposes of comparison. “A” and “B” refer to different batches of a compound. FIG. 4. SphK1 was incubated with indicated compounds at 10 μM, then the activity of SphK1 was determined. The data shown here is a relative activity of SphK1 compared to control (no inhibitor, column labeled Sph in the Figure). 96091 is a known Spk1 inhibitor. A5, B26, K25 and QLA13 are as above for […]. “A” and “B” refer to different batches of a compound.
FIG. 6. SphK1 was incubated with indicated compounds at 10 μM, then the activity of SphK2 was determined. The data shown here is a relative activity of SphK2 compared to control (no inhibitor).

[1] = test system: human leukemia U937 cells; assay: Cell viability assay in human leukemia U937 cells; format: cell-based; conditions: Homo sapiens, U-937; 24 hrs treatment, MTT assay; read-out: IC50 ± SEM, inhibition of U937 cell proliferation
Procedure: Cells were cultured at a density of 5×10^4 (U937) or 1×10^4 (PC-3, DU145, M12, HT29) cells per well in flat bottomed 96-well plates and treated with various concentrations of test compound at 37° C. (5% CO2). After 24 h, 20 μL of CellTiter 96® Aqueous One Solution Reagent (Promega, Madison, Wis.) was added to each well according to the manufacturer's instructions. After 1 hour, the cell viability was determined by measuring the absorbance at 490 nm using a micro-plate reader.

U937 cells = assay: Cell apoptosis assay, annexin V/PI flow cytometry; format: cell-based, human; conditions: 24 hrs treatment
Procedure: Apoptosis was measured by flow cytometry using annexin V/propidium iodide (PI) as staining reagent. […] The cells were then incubated with annexin V-fluorescein isothiocyanate (FITC) (BD PharMingen, San Diego, Calif.) and 5 μg/mL propidium iodide (PI), and incubated for 15 minutes at room temperature in the dark per the manufacturer's instructions. The samples were analyzed by flow cytometry using a Becton Dickinson FACScan (Becton Dickinson, San Jose, Calif.) within 1 hr to determine the percentage of cells displaying annexin V staining (early apoptosis) or both annexin V and PI staining (late apoptosis).

[2] = test system: Raf/MEK/ERK and PI3K/Akt signaling pathways; assay: Western blot analysis of ERK and Akt phosphorylation; format: cell-based; conditions: Western blot, FIGS. 9 and 10
Procedure: Cells (5×10^5 per ml) were treated with various concentrations of test compound at 37° C. (5% CO2) for 3 hrs, then stimulated with TPA at a final concentration of 200 nM for 20 min. Samples from whole-cell pellets were prepared and 30 μg protein for each condition was subjected to SDS-PAGE, transferred onto a PVDF membrane, and blocked with 5% fat-free milk for 30 min. The membrane is probed with primary antibodies overnight at 4° C. followed by incubation with horseradish peroxidase-labeled anti-mouse IgG (1:5000, BD Bioscience). The immunoreactive bands are detected by chemilluminescence methods (Pierce) and visualized on Kodak Omat film. The following primary antibodies were used: phospho-p44/42 MAPK (ERK1/2, Thr202/Tyr204), p44/42 MAPK, phospho-p90RSK (Thr359/Ser363), RSK1/RSK2/RSK3 (Cell Signaling). Blots were reprobed with antibodies against α-tubulin to ensure equal loading and transfer of proteins.

U937 xenograft [3] = assay: U937 xenografts in nude mice, oral administration; conditions: oral gavage daily 15 days; K145 50 mg/kg, tamibarotene 20 mg/kg
Procedure: BALB/c-nu mice (n=7) with palpable U937 xenograft were treated daily with vehicle, tamibarotene (20 mg/kg), or K145 (50 mg/kg) for 15 days by oral gavage. After treatment, animals were sacrificed and tumors were removed, weighed and images were taken. […] Data are expressed as mean value±SEM. *P<0.05 compared to control group.
In this experiment, K145 was given at 50 mg/kg by oral gavage daily for 15 days and tumor volume and animal weights were measured every other day. Again, tamibarotene (20 mg/kg) was used as positive control.

U937 xenograft [4] = assay: U937 xenografts in nude mice, i.p. administration; format: in vivo, BALB/c-nu mice; conditions: 15 mg/kg daily i.p.
Procedure: D) Body weights of mice throughout treatment. Data are expressed as mean value±SD. *P<0.05 compared to control group.
Female nude mice (BALB/c-nu, n=7) were inoculated with 3×10^7 U937 cells subcutaneously in the right flank. After 7 days of implant of U937 cells, mice were treated daily with Vehicle (control), or Tamibarotene (15 mg/Kg, positive control), or Formula III (K145) (15 mg/Kg) by i.p. administration. Tumor size was measured every other day.

Chain of SphK1 (Q9NYA1 whole entry, species assumed): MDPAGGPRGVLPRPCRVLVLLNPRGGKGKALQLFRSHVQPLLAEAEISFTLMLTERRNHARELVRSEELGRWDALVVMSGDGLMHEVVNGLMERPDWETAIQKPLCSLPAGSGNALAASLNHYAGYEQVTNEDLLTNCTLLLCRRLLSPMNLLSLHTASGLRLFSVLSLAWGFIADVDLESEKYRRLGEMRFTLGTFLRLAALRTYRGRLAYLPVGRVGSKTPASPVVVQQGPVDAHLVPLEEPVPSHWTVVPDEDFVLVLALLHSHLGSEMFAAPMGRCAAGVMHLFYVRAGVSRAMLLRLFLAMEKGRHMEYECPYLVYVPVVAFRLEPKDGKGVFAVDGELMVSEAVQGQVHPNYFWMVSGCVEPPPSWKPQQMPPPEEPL

Compound	inhibition of SphK2 activity (in words) (SphK2)	inhibition of SphK1 activity (in words) (SphK1)	IC50 [1]	other results
CCCCCCCOc1ccc(CC/C=C2\SC(=O)N(CCNC(=N)N)C2=O)cc1 [K11167]	inhibits both Sphk1 and Sphk2	inhibits both Sphk1 and Sphk2	–	–
CCCCCCCCCCCOc1ccc(CC/C=C2\SC(=O)N(CCN)C2=O)cc1 [KLII123]	inhibited SphK2 selectively	did not inhibit SphK1 or inhibited SphK1 to a lesser extent	–	–
CCCCCCCCCOc1ccc(CC/C=C2\SC(=O)N(CCN)C2=O)cc1 [KLII157]	inhibited SphK2 selectively	did not inhibit SphK1 or inhibited SphK1 to a lesser extent	–	–
NCCN1C(=O)C(=CCCC2CCCCC2)c2ccccc21 [S-II-36, 1-(2-aminoethyl)-3-(3-cyclohexylpropylidene)indolin-2-one]	–	–	2700 ± 200 nM	–
NCCN1C(=O)C(=CCCc2ccc(F)cc2)c2ccccc21 [S-II-39, 1-(2-aminoethyl)-3-(3-(4-fluorophenyl)propylidene)indolin-2-one]	–	–	2690 ± 60 nM	–
NCCN1C(=O)C(=CCCC2CC2)c2ccccc21 [S-II-40, 1-(2-aminoethyl)-3-(3-cyclopropylpropylidene)indolin-2-one]	–	–	1160 ± 50 nM	–
NCCN1C(=O)C(=CCCc2ccc(Cl)cc2)c2ccccc21 [S-II-60, 1-(2-aminoethyl)-3-(3-(4-chlorophenyl)propylidene)indolin-2-one]	–	–	4000 ± 700 nM	–
NCCN1C(=O)C(=CCCc2ccc([N+](=O)[O-])cc2)c2ccccc21 [S-II-61, 1-(2-aminoethyl)-3-(3-(4-nitrophenyl)propylidene)indolin-2-one]	–	–	3600 ± 200 nM	–
COc1ccc(CCC=C2C(=O)N(CCN)c3ccccc32)cc1 [S-II-71, 1-(2-aminoethyl)-3-(3-(4-methoxyphenyl)propylidene)indolin-2-one]	–	–	920 ± 40 nM	apoptotic effects in U937 cells (U937 cells): induced both early and late apoptotic effect; inhibition of Raf/MEK/ERK and PI3K/Akt signaling pathways [2]: inhibit
NCCN1C(=O)C(=CCCC23CC4CC(CC(C4)C2)C3)c2ccccc21 [S-II-73, 3-(3-(3r,5r,7r)-adamantan-1-yl)propylidene)-1-(2-aminoethyl)indolin-2-one]	inhibited SphK2 selectively	did not inhibit SphK1 or inhibited SphK1 to a lesser extent	–	–
CCCCOc1ccc(CCC=C2C(=O)N(CCN)c3ccccc32)cc1 [S-II-78, 1-(2-aminoethyl)-3-(3-(4-butoxyphenyl)propylidene)indolin-2-one]	–	–	4600 ± 800 nM	–
CCOc1ccc(CCC=C2C(=O)N(CCN)c3ccccc32)cc1 [S-II-102, 1-(2-aminoethyl)-3-(3-(4-ethoxyphenyl)propylidene)indolin-2-one]	–	–	950 ± 110 nM	–
CCCCCCCOc1ccc(CCC=C2C(=O)N(CCN)c3ccccc32)cc1 [S-II-103, 1-(2-aminoethyl)-3-(3-(4-(heptyloxy)phenyl)propylidene)indolin-2-one]	inhibited SphK2 selectively	did not inhibit SphK1 or inhibited SphK1 to a lesser extent	3500 ± 300 nM	apoptotic effects in U937 cells (U937 cells): mainly induced late apoptotic effects; inhibition of Raf/MEK/ERK and PI3K/Akt signaling pathways [2]: inhibit
CCCCCCCOc1ccc(CC/C=C2/C(=O)N(CCN)c3ccccc32)cc1 [S-II-104]	inhibited SphK2 selectively	did not inhibit SphK1 or inhibited SphK1 to a lesser extent	–	–
CCCCCCCCC=C1C(=O)N(CCN)c2ccccc21 [S-II-129, 1-(2-aminoethyl)-3-nonylideneindolin-2-one]	–	–	2128 ± 6 nM	–
CC1(C)CCC(C)(C)c2cc(NC(=O)c3ccc(C(=O)O)cc3)ccc21 [tamibarotene, reference compound]	–	–	–	TGI (tumor growth inhibition) (U937 xenograft [3]): 33.37%; TGI (tumor growth inhibition) (U937 xenograft [4]; 17 days): 50.4%; body weights of mice (U937 xenograft [4]; compared with vehicle): caused body weight decreases
